Among the data in patent US20090270371A1, “QUINOLINE DERIVATIVES USEFUL IN THE TREATMENT OF MGLUR5 RECEPTOR-MEDIATED DISORDERS” (priority 2005, published 2009) are Ki values, retold here.

pKi: −log10 of the molar value.

T1 sequence (P31424 21-1203): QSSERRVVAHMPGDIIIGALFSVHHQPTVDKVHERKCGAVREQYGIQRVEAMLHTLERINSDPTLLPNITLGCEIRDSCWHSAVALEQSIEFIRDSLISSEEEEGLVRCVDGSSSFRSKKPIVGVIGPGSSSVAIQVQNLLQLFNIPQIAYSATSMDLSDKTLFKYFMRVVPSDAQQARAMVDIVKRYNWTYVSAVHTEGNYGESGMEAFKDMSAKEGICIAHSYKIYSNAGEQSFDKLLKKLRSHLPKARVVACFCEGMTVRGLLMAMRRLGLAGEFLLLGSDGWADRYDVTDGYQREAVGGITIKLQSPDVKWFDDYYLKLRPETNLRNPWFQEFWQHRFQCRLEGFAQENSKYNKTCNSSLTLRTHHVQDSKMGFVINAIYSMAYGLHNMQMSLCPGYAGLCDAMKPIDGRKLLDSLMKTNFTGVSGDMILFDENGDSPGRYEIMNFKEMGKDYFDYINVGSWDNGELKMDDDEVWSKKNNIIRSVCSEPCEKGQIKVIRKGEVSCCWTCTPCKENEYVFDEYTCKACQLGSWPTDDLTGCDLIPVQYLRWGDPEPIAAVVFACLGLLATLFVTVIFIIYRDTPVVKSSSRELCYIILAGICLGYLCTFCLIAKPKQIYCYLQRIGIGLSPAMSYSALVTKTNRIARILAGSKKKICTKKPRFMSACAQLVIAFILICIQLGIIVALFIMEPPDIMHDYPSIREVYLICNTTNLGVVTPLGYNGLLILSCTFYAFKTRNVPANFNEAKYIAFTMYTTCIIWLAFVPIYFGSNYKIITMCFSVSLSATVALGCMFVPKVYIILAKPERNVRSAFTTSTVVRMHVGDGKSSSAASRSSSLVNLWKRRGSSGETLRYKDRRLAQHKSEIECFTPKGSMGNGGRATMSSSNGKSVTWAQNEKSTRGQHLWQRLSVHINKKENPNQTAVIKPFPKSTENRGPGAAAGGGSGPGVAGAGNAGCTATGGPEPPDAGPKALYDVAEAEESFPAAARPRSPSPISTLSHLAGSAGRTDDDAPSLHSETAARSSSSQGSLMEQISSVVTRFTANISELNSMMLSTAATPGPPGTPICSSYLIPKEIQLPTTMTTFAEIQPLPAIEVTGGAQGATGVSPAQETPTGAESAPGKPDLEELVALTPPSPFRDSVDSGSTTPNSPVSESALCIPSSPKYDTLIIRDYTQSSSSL

This assay has as its target T1, rat mGluR5 receptors (Rattus norvegicus, UniProt P31424).
T1 construct: rat cerebro-cortical membrane preparation was used; from tissue; host or cells: rat cerebral cortex membranes
Kind of assay: mGluR5 receptor binding test, rat cerebro-cortical membrane preparation, [3H]-M-MPEP. As to conditions: affinity for rat mGluR5 receptors; [3H]-M-MPEP (2 nM) radioligand. The gist of the method:
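Radioligand binding used rat cerebro-cortical membranes with 2 nM [3H]-M-MPEP. Nonspecific binding was defined with 10 μM M-MPEP. The method follows a modification of a published procedure.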
On to `Cc1ccc2ncc(S(=O)(=O)c3ccc(Cl)cc3)c(N3CCN(c4ccccc4)CC3)c2c1` [Compound 123], for which the pKi is less than 6.30.
On to `CC1CCN(c2c(S(=O)(=O)c3ccc(F)c(Cl)c3)cnc3ccc(F)cc23)CC1` [Compound 349], for which the pKi is 6.30 to 6.70.
Turning to `COc1ccc(S(=O)(=O)c2cnc3ccc(Cl)cc3c2N2CCC(C)CC2)cc1Cl` [Compound 221], the pKi is less than 6.30.
In turn, `CC1CCN(c2c(S(=O)(=O)c3ccc(Cl)c(Cl)c3)cnc3c(F)cccc23)CC1` [Compound 236] had a pKi of more than 6.70.
In turn, `CCN1CCN(c2c(S(=O)(=O)c3ccc(F)cc3)cnc3ccc(Cl)cc23)CC1` [Compound 10] showed a pKi of less than 6.30.
Then `CC1CCN(c2c(S(=O)(=O)c3ccc(C#N)cc3)cnc3ccc(F)cc23)CC1` [Compound 150], with 6.30 to 6.70.
Then `O=S(=O)(c1ccc(F)c(Cl)c1)c1cnc2cc(Cl)ccc2c1N1CCOCC1` [Compound 334], with more than 6.70; and `CCOc1ccc2ncc(S(=O)(=O)c3ccc(C)cc3)c(N3CCC(C)CC3)c2c1` [Compound 114], with less than 6.30.
The result for `CC1CCN(c2c(S(=O)(=O)c3cc(Cl)cc(Cl)c3)cnc3cc(Cl)ccc23)CC1` [Compound 188] reads more than 6.70.
The compound `CC1CCN(c2c(S(=O)(=O)c3ccc(F)c(F)c3)cnc3c(F)cccc23)CC1` [Compound 238] gave a pKi of more than 6.70.
Turning to `CC1CCN(c2c(S(=O)(=O)c3ccccc3)cnc3ccccc23)CC1` [Compound 47], the pKi is more than 6.70.
`COc1ccc2ncc(S(=O)(=O)c3ccccc3)c(N3CCN(Cc4ccccc4)CC3)c2c1` [Compound 111]: the pKi was less than 6.30.
Compound `O=S(=O)(c1ccc(F)cc1)c1cnc2c(F)cccc2c1N1CCOCC1` [Compound 337] gave a pKi of less than 6.30.
As for `COc1ccc2ncc(S(=O)(=O)c3ccc(C)c(C)c3)c(N3CCC(C)CC3)c2c1` [Compound 250], the pKi was 6.30 to 6.70.
The result for `COc1ccc2ncc(S(=O)(=O)c3ccc(OC)c(OC)c3)c(N3CCC(C)CC3)c2c1` [Compound 242] reads less than 6.30; that for `CCOc1ccc2ncc(S(=O)(=O)c3ccc(C)cc3)c(N3CCCCCC3)c2c1` [Compound 119], less than 6.30.
With `CC1CCN(c2c(S(=O)(=O)c3ccccc3)cnc3cc(Cl)ccc23)CC1` [Compound 194], the pKi was more than 6.70.
Then `COc1ccc(S(=O)(=O)c2cnc3cc(F)ccc3c2N2CCC(C)CC2)cc1` [Compound 185], with more than 6.70; and `O=S(=O)(c1ccccc1)c1cnc2ccccc2c1N1CCCCCC1` [Compound 89], with 6.30 to 6.70.
In turn, `Cc1ccc(Nc2c(S(=O)(=O)c3ccc(C)cc3)cnc3ccccc23)cc1` [Compound 21] showed a pKi of less than 6.30.
Then `CCc1ccc2ncc(S(=O)(=O)c3ccc(Cl)cc3)c(N(CC)CC)c2c1` [Compound 84], with less than 6.30; and `Cc1ccc(S(=O)(=O)c2cnc3ccccc3c2N2CCC(C)CC2)cc1C` [Compound 3, 3-(3,4-Dimethyl-benzenesulfonyl)-4-(4-methyl-piperidin-1-yl)-quinoline], with more than 6.70.
For the compound `COc1ccc(S(=O)(=O)c2cnc3ccc(F)cc3c2N2CCC(C)CC2)cc1` [Compound 142], the pKi was more than 6.70.
With `CC1CCN(c2c(S(=O)(=O)c3cc(F)cc(F)c3)cnc3ccc(F)cc23)CC1` [Compound 139], the pKi is less than 6.30.
Then `CC1CCN(c2c(S(=O)(=O)c3ccc(Cl)cc3)cnc3ccc(F)cc23)CC1` [Compound 137], with more than 6.70; and `Cc1ccc(S(=O)(=O)c2cnc3ccccc3c2Nc2ccc3c(c2)OCCO3)cc1` [Compound 27], with less than 6.30; and `Cc1ccc(S(=O)(=O)c2cnc3cc(Cl)ccc3c2N2CCC(C)CC2)cc1` [Compound 191], with more than 6.70.
`Cc1ccc(S(=O)(=O)c2cnc3cc(Cl)ccc3c2N2CCC(C)CC2)cc1F` [Compound 203] showed a negative logarithm of the Ki (pKi) of more than 6.70.
On to `Cc1ccc(S(=O)(=O)c2cnc3cc4c(cc3c2N2CCC(C)CC2)OCCO4)cc1` [Compound 92], for which the pKi was less than 6.30.
Then `Cc1ccc(S(=O)(=O)c2cnc3ccc(C)cc3c2N2CCN(c3ccccc3F)CC2)cc1` [Compound 73], with less than 6.30; and `Cc1ccc2ncc(S(=O)(=O)c3cccc(C#N)c3)c(N3CCOCC3)c2c1` [Compound 256], with 6.30 to 6.70; and `Cc1ccc(S(=O)(=O)c2cnc3ccccc3c2N2CCOCC2)cc1C` [Compound 1, 3-(3,4-Dimethyl-benzenesulfonyl)-4-(morpholin-4-yl)-quinoline], with more than 6.70.
`CC1CCN(c2c(S(=O)(=O)c3ccc(Cl)cc3)cnc3ccc(Cl)cc23)CC1` [Compound 213] showed a pKi of more than 6.70.
As to `O=S(=O)(c1ccccc1)c1cnc2ccc(F)cc2c1N1CCCCC1` [Compound 107], the pKi was less than 6.30.
`Cc1ccc(S(=O)(=O)c2cnc3cc(F)ccc3c2N2CCOCC2)cc1F` [Compound 309] had a pKi of 6.30 to 6.70.
Then `CCOC(=O)C1CCCN(c2c(S(=O)(=O)c3ccc(C)cc3)cnc3ccccc23)C1` (stereo not shown) [Compound 56], with less than 6.30.
Then `CC1CCN(c2c(S(=O)(=O)c3cc(F)cc(F)c3)cnc3cc(Cl)ccc23)CC1` [Compound 189], with more than 6.70; and `CC1CCN(c2c(S(=O)(=O)c3cccc(C#N)c3)cnc3ccc(Cl)cc23)CC1` [Compound 210], with more than 6.70; and `Cc1ccc2ncc(S(=O)(=O)c3ccc(C)c(Cl)c3)c(N3CCOCC3)c2c1` [Compound 266], with 6.30 to 6.70.
Regarding `CCc1ccc2ncc(S(=O)(=O)c3ccc(C)cc3)c(NCc3ccc(F)cc3)c2c1` [Compound 130], the pKi is less than 6.30.
In turn, `Cc1ccc(S(=O)(=O)c2cnc3ccccc3c2N2CCN(c3cc(C)ccc3C)CC2)cc1` [Compound 70] showed a pKi of less than 6.30.
On to `O=S(=O)(c1cccc(F)c1)c1cnc2c(F)cccc2c1N1CCOCC1` [Compound 340], for which the negative logarithm of the Ki (pKi) is less than 6.30.
For the compound `O=S(=O)(c1ccccc1)c1cnc2ccccc2c1N1CCN(c2cccc(Cl)c2)CC1` [Compound 71], the pKi was less than 6.30.
Then `Cc1ccc(S(=O)(=O)c2cnc3ccccc3c2N2CCCCCC2)cc1` [Compound 32], with more than 6.70; and `Cc1ccc(S(=O)(=O)c2cnc3ccc(C)cc3c2N2CCCCC2)cc1` [Compound 41], with less than 6.30.
Regarding `CCc1ccc2ncc(S(=O)(=O)c3ccc(C)cc3)c(NCc3ccccc3)c2c1` [Compound 85], the pKi was less than 6.30.
`COc1ccc(S(=O)(=O)c2cnc3ccc(OC)cc3c2N2CCC(C)CC2)cc1` [Compound 88]: the pKi is less than 6.30.
For `Cc1ccc(S(=O)(=O)c2cnc3ccc(Cl)cc3c2N2CCC(C)CC2)cc1` [Compound 211], the pKi was more than 6.70.
The result for `CC1CCN(c2c(S(=O)(=O)c3cccc(Cl)c3)cnc3cc(Cl)ccc23)CC1` [Compound 201] reads more than 6.70; that for `COc1cccc(S(=O)(=O)c2cnc3cc(F)ccc3c2N2CCOCC2)c1` [Compound 306], 6.30 to 6.70; that for `COc1ccc(S(=O)(=O)c2cnc3cc(Cl)ccc3c2N2CCOCC2)cc1Cl` [Compound 330], 6.30 to 6.70.
In turn, `COc1ccc2ncc(S(=O)(=O)c3ccc(C)c(F)c3)c(N3CCC(C)CC3)c2c1` [Compound 247] showed a pKi of 6.30 to 6.70.
`COc1ccc(S(=O)(=O)c2cnc3cc(Cl)ccc3c2N2CCC(C)CC2)cc1` [Compound 193] showed a pKi of 6.30 to 6.70.
Then `O=S(=O)(c1cc(Cl)cc(Cl)c1)c1cnc2cc(F)ccc2c1N1CCOCC1` [Compound 308], with 6.30 to 6.70.
`CC1CCN(c2c(S(=O)(=O)c3cc(Cl)cc(Cl)c3)cnc3ccc(Cl)cc23)CC1` [Compound 208]: the pKi is more than 6.70.
Consider `CC1CCN(c2c(S(=O)(=O)c3ccc(F)cc3)cnc3ccc(F)cc23)CC1` [Compound 141], for which the pKi was more than 6.70.
The compound `O=S(=O)(c1ccc(Cl)cc1)c1cnc2ccccc2c1N1CCOCC1` [Compound 40] had a pKi of less than 6.30.
Then `COc1ccc2ncc(S(=O)(=O)c3ccc(C)c(Cl)c3)c(N3CCOCC3)c2c1` [Compound 276], with less than 6.30.
As to `CCOC(=O)C1CCN(c2c(S(=O)(=O)c3ccc(C)cc3)cnc3ccc(F)cc23)CC1` [Compound 55], the pKi was less than 6.30.
As to `CC1CCN(c2c(S(=O)(=O)c3ccc(F)c(Cl)c3)cnc3cc(F)ccc23)CC1` [Compound 187], the pKi is more than 6.70.
Take `O=S(=O)(c1ccccc1)c1cnc2ccccc2c1N1CCN(Cc2ccccc2)CC1` [Compound 64]: the pKi is less than 6.30.
The result for `N#Cc1ccc2ncc(S(=O)(=O)c3ccc(F)cc3)c(N3CCOCC3)c2c1` [Compound 346] reads 6.30 to 6.70.
Then `CCc1ccc2ncc(S(=O)(=O)c3ccccc3)c(N3CCCC3)c2c1` [Compound 35], with less than 6.30.
`CC1CCN(c2c(S(=O)(=O)c3cc(F)cc(F)c3)cnc3c(F)cccc23)CC1` [Compound 227] had a pKi of less than 6.30.
Then `CC1CCN(c2c(S(=O)(=O)c3ccc(F)cc3)cnc3ccc(Cl)cc23)CC1` [Compound 212], with more than 6.70; and `CC1CCN(c2c(S(=O)(=O)c3ccc(F)cc3)cnc3cc(Cl)ccc23)CC1` [Compound 192], with more than 6.70; and `Cc1ccc(S(=O)(=O)c2cnc3cc(F)ccc3c2N2CCC(C)CC2)cc1F` [Compound 178], with more than 6.70.
`CCOC(=O)C1CCN(c2c(S(=O)(=O)c3ccc(C)cc3)cnc3ccccc23)CC1` [Compound 54]: the pKi is less than 6.30.
Then `COc1ccc2ncc(S(=O)(=O)c3cc(Cl)cc(Cl)c3)c(N3CCOCC3)c2c1` [Compound 271], with less than 6.30; and `COc1ccc2ncc(S(=O)(=O)c3ccc(C)cc3)c(NCc3ccc(C)cc3)c2c1` [Compound 121], with less than 6.30.
The compound `COc1ccccc1N1CCN(c2c(S(=O)(=O)c3ccc(C)cc3)cnc3ccccc23)CC1` [Compound 74] gave a pKi of less than 6.30.
For the compound `COc1ccc(S(=O)(=O)c2cnc3ccc(F)cc3c2N2CCC(C)CC2)cc1OC` [Compound 143], the pKi is 6.30 to 6.70.
For the compound `O=S(=O)(c1ccc(Cl)cc1)c1cnc2ccccc2c1N1CCN(c2ccc(F)cc2)CC1` [Compound 72], the pKi was less than 6.30.
